Format in all cases: in vivo
For test [1], the system named is Avena fatua (AVEFA). In words: Pre-emergence herbicidal activity, glasshouse pot test. Particulars: 480 h, rate 250 g/ha, evaluated 20 days later, 100=total damage to plant, 0=no damage to plant. The method, then: (§1) Monocotyledonous and dicotyledonous test plants were sown in standard soil in pots. After cultivation for one day (pre-emergence) or after 10 days cultivation (post-emergence) under controlled conditions in a glasshouse, the plants were sprayed with an aqueous spray solution derived from the formulation of the technical active ingredient in 0.6 ml acetone and 45 ml formulation solution containing 10.6% Emulsogen EL (Registry number 61791-12-6), 42.2% N-methylpyrrolidone, 42.2% dipropylene glycol monomethyl ether (Registry number 34590-94-8) and 0.2% X-77 (Registry number 11097-66-8). The test plants were then grown in a greenhouse under optimum conditions until, 15 days later for post-emergence and 20 days for pre-emergence, the test was evaluated (100=total damage to plant; 0=no damage to plant). Test Plants: Alopecurus myosuroides (ALOMY), Avena fatua (AVEFA), Lolium perenne (LOLPE), Setaria faberi (SETFA), Digitaria sanguinalis (DIGSA), Echinochloa crus-galli (ECHCG)

For test [2], the system named is Echinochloa crus-galli (ECHCG). The description is as above. The conditions noted are these: 480 h, rate 250 g/ha, evaluated 20 days later, 100=total damage to plant, 0=no damage to plant. The method, then: as §1
Test [3] has as its system Alopecurus myosuroides (ALOMY). The description is as above. Particulars: 480 h, rate 250 g/ha, evaluated 20 days later, 100=total damage to plant, 0=no damage to plant. The method, then:
as §1

The test system of test [4] is Setaria faberi (SETFA). The test is described as above. Particulars: 480 h, rate 250 g/ha, evaluated 20 days later, 100=total damage to plant, 0=no damage to plant. The method, then: as §1
The test system of test [5] is Digitaria sanguinalis (DIGSA). The test is described as above. Particulars: 480 h, rate 250 g/ha, evaluated 20 days later, 100=total damage to plant, 0=no damage to plant. The method, then:
as §1

The test system of test [6] is Lolium perenne (LOLPE). The test is described as above. The conditions noted are these: 480 h, rate 250 g/ha, evaluated 20 days later, 100=total damage to plant, 0=no damage to plant. The method, then: as §1
The test system of test [7] is Avena fatua (AVEFA). In words: Post-emergence herbicidal activity, glasshouse pot test. The conditions noted are these: 360 h, rate 125 g/ha, evaluated 15 days later, 100=total damage to plant, 0=no damage to plant. The method, then: as §1
Test [8] relates to Echinochloa crus-galli (ECHCG). Described as above. The conditions noted are these: 360 h, rate 125 g/ha, evaluated 15 days later, 100=total damage to plant, 0=no damage to plant. The method, then: as §1
Test [9] has as its system Alopecurus myosuroides (ALOMY). Described as above. Particulars: 360 h, rate 125 g/ha, evaluated 15 days later, 100=total damage to plant, 0=no damage to plant. The protocol:
as §1

Test [10] concerns Setaria faberi (SETFA). The description is as above. Particulars: 360 h, rate 125 g/ha, evaluated 15 days later, 100=total damage to plant, 0=no damage to plant. The protocol: as §1
The subject of test [11] is Digitaria sanguinalis (DIGSA). The test is described as above. Particulars: 360 h, rate 125 g/ha, evaluated 15 days later, 100=total damage to plant, 0=no damage to plant. The method, then: as §1
The subject of test [12] is Lolium perenne (LOLPE). The description is as above. Particulars: 360 h, rate 125 g/ha, evaluated 15 days later, 100=total damage to plant, 0=no damage to plant. The protocol:
as §1

Each structure is given as a SMILES string.

Turning to `CCc1ccc(-c2ccc(Cl)c(Cl)c2)cc1C1=C(O)[C@H]2[C@@H](C1=O)[C@@H]1CC[C@H]2O1` [Compound T14], the pest or weed control (in general, how far the test organism was held down) at 250 g/ha in the test on Avena fatua (AVEFA) [1] was found to be 20%; in test [2], 90%; in test [3], 10%; in the test with Setaria faberi (SETFA) [4] it was 100%; in test [5], 90%; in the test on Lolium perenne (LOLPE) [6], 40%. The pest or weed control at 125 g/ha turned out to be 80% in the test with Avena fatua (AVEFA) [7]; 100% in test [8]; 90% in test [9]; 100% with Setaria faberi (SETFA) [10]; 100% in [11]; 30% in the test on Lolium perenne (LOLPE) [12].

As for `Cc1ccc(-c2cc(C)c(C3C(=O)[C@@H]4[C@H](C3=O)[C@H]3CC[C@@H]4O3)c(C)c2)cc1` (stereo partly drawn) [Compound T27], the pest or weed control at 250 g/ha stood at 30% in the test on Avena fatua (AVEFA) [1]; 60% in test [2]; 0% in test [3]; 40% in the test with Setaria faberi (SETFA) [4]; 40% in test [5]; 30% with Lolium perenne (LOLPE) [6]. Also, the pest or weed control at 125 g/ha in the test with Avena fatua (AVEFA) [7] was 40%; in test [8], 70%; in [9] it was 70%; in the test with Setaria faberi (SETFA) [10], 70%; in [11], 60%; in the test on Lolium perenne (LOLPE) [12], 70%.

For the compound `CCc1ccc(-c2ccc(Cl)s2)cc1C1=C(O)[C@H]2[C@@H](C1=O)[C@@H]1CC[C@H]2O1` [Compound T18], the pest or weed control at 250 g/ha turned out to be 20% with Avena fatua (AVEFA) [1]; 90% in test [2]; 50% in [3]; 90% with Setaria faberi (SETFA) [4]; 100% in [5]; 80% in the test on Lolium perenne (LOLPE) [6]. For the same compound, the pest or weed control at 125 g/ha amounted to 100% with Avena fatua (AVEFA) [7]; 100% in test [8]; 100% in [9]; 100% with Setaria faberi (SETFA) [10]; 100% in test [11]; 70% in the test on Lolium perenne (LOLPE) [12].

With `Cc1cc(-c2ccccc2)cc(C)c1C1=C(OC(=O)C(C)(C)C)[C@H]2[C@@H](C1=O)[C@]1(C)CC[C@H]2O1` [Compound P7], the pest or weed control at 250 g/ha in the test with Avena fatua (AVEFA) [1] came to 90%; in test [2] it was 90%; in test [3] it was 100%; in the test with Setaria faberi (SETFA) [4] it was 100%; in test [5], 100%; in the test with Lolium perenne (LOLPE) [6], 100%. For the same compound, the pest or weed control at 125 g/ha in the test on Avena fatua (AVEFA) [7] was 100%; in [8], 100%; in [9], 100%; with Setaria faberi (SETFA) [10] it was 100%; in [11], 100%; in the test with Lolium perenne (LOLPE) [12] it was 80%.

As to `Cc1cc(-c2ccccc2)cc(C)c1C1C(=O)[C@@H]2[C@H](C1=O)[C@H]1CC[C@@H]2O1` (mixture of isomers) [Compound T6, (1RS,2SR,6RS,7SR)-4-(3,5-dimethylbiphen-4-yl)-10-oxa-tricyclo[5.2.1.0^2,6]decane-3,5-dione], the pest or weed control at 250 g/ha was 0% in the test on Avena fatua (AVEFA) [1]; 100% in [2]; 50% in [3]; 100% in the test on Setaria faberi (SETFA) [4]; 80% in test [5]; 70% in the test with Lolium perenne (LOLPE) [6]. Besides, the pest or weed control at 125 g/ha in the test on Avena fatua (AVEFA) [7] came to 30%; in test [8], 70%; in test [9], 80%; in the test on Setaria faberi (SETFA) [10], 60%; in test [11], 30%; in the test on Lolium perenne (LOLPE) [12], 50%.

For `CCc1ccc(-c2ccc(Cl)c(F)c2)cc1C1=C(O)[C@H]2[C@@H](C1=O)[C@]1(C)CC[C@@]2(C)O1` [Compound T33], the pest or weed control at 250 g/ha in the test with Avena fatua (AVEFA) [1] came out at 0%; in test [2] it was 70%; in [3], 20%; in the test on Setaria faberi (SETFA) [4], 80%; in test [5] it was 70%; with Lolium perenne (LOLPE) [6], 50%. In addition, the pest or weed control at 125 g/ha with Avena fatua (AVEFA) [7] was found to be 100%; in test [8], 100%; in [9], 100%; in the test with Setaria faberi (SETFA) [10], 100%; in [11], 100%; in the test with Lolium perenne (LOLPE) [12] it was 80%.

For `CCc1ccc(-c2ccc(Cl)c(F)c2)cc1C1=C(O)[C@H]2[C@@H](C1=O)[C@@H]1CC[C@H]2O1` [Compound T19], the pest or weed control at 250 g/ha with Avena fatua (AVEFA) [1] was found to be 70%; in test [2], 90%; in [3], 70%; in the test with Setaria faberi (SETFA) [4], 90%; in [5], 100%; with Lolium perenne (LOLPE) [6], 60%. In addition, the pest or weed control at 125 g/ha came to 100% with Avena fatua (AVEFA) [7]; 100% in [8]; 100% in test [9]; 100% in the test on Setaria faberi (SETFA) [10]; 100% in [11]; 90% in the test with Lolium perenne (LOLPE) [12].

With `CCc1cc(-c2ccc(C)cc2)cc(CC)c1C1C(=O)[C@@H]2[C@H](C1=O)[C@H]1CC[C@@H]2O1` (stereo partly drawn) [Compound T9], the pest or weed control at 250 g/ha in the test on Avena fatua (AVEFA) [1] turned out to be 50%; in [2], 100%; in test [3] it was 70%; in the test with Setaria faberi (SETFA) [4], 50%; in test [5], 60%; with Lolium perenne (LOLPE) [6], 80%. The pest or weed control at 125 g/ha came out at 20% in the test with Avena fatua (AVEFA) [7]; 100% in test [8]; 80% in test [9]; 70% in the test with Setaria faberi (SETFA) [10]; 80% in [11]; 80% in the test on Lolium perenne (LOLPE) [12].

For the compound `CCc1ccc(-c2ccc(Cl)cc2C)cc1C1=C(O)[C@H]2[C@@H](C1=O)[C@@H]1CC[C@H]2O1` [Compound T13], the pest or weed control at 250 g/ha in the test on Avena fatua (AVEFA) [1] worked out at 20%; in test [2], 70%; in test [3], 40%; in the test with Setaria faberi (SETFA) [4], 80%; in test [5], 80%; in the test with Lolium perenne (LOLPE) [6], 30%. Besides, the pest or weed control at 125 g/ha amounted to 30% in the test on Avena fatua (AVEFA) [7]; 100% in test [8]; 50% in test [9]; 80% in the test with Setaria faberi (SETFA) [10]; 10% in [11]; 40% in the test with Lolium perenne (LOLPE) [12].

Regarding `CCc1ccc(-c2ccc(Cl)cc2)cc1C1=C(O)[C@H]2[C@@H](C1=O)[C@]1(C)C=C[C@@]2(C)O1` [Compound T12], the pest or weed control at 250 g/ha in the test on Avena fatua (AVEFA) [1] turned out to be 20%; in [2], 90%; in test [3], 70%; with Setaria faberi (SETFA) [4], 100%; in test [5], 100%; in the test with Lolium perenne (LOLPE) [6] it was 60%. For the same compound, the pest or weed control at 125 g/ha in the test on Avena fatua (AVEFA) [7] was found to be 100%; in test [8], 100%; in [9], 100%; in the test on Setaria faberi (SETFA) [10] it was 100%; in test [11], 100%; in the test with Lolium perenne (LOLPE) [12], 80%.

Turning to `Cc1cc(-c2ccccc2)cc(C)c1C1=C(OC(=O)c2c(C)noc2C)[C@H]2[C@@H](C1=O)[C@@H]1CC[C@H]2O1` [Compound P4], the pest or weed control at 250 g/ha in the test with Avena fatua (AVEFA) [1] was determined as 50%; in test [2], 100%; in [3], 100%; in the test with Setaria faberi (SETFA) [4], 100%; in [5], 100%; in the test on Lolium perenne (LOLPE) [6], 90%. Further, the pest or weed control at 125 g/ha in the test on Avena fatua (AVEFA) [7] came to 90%; in test [8] it was 100%; in test [9], 100%; in the test on Setaria faberi (SETFA) [10] it was 80%; in test [11] it was 80%; in the test on Lolium perenne (LOLPE) [12] it was 90%.

The record behind these values is US8940913B2, “Herbicides” (Syngenta Crop Protection, LLC, priority 2007, dated 2015).
